Our source for the ΔTm and EC50 values is patent US12162863B2, “Modulators of stimulator of interferon genes (STING)” (RYVU THERAPEUTICS S.A., priority 2018, dated 2024).

For one experiment, the target named is human STING (Homo sapiens, UniProt Q86WV6). The experiment can be described thus: Fluorescence Thermal Shift assay. Particulars: 50 μM compound; STING 0.1 mg/ml; 20 minutes preincubation; read-out: [hSTING] FTS, ΔTm [° C.] for 50 μM. The format is binding. The protocol:
Fluorescence Thermal Shift Assay Compounds of the present invention were tested for binding to human STING in Fluorescence Thermal Shift assay. STING was preincubated with the compounds for 20 minutes in 50 mM Hepes, 150 mM NaCl, pH 7.5 in 16 μl volume, following by adding 4 μl of SyproOrange dye dilution (ThermoFisher, cat no. S-6651). Final STING concentration was 0.1 mg/ml. Thermal unfolding was performed in Real-Time PCR QuantStudio 6 Flex System (Applied Biosystems), from 25 to 99° C., with continuous ramp mode and ramp rate 0.033° C./s. The data were analyzed using Protein Thermal Shift Software (ThermoFisher). […] For example, ΔTm [° C.] of FTS assay for following examples are: […]

For experiment [1], the system named is interferon regulatory factor (IRF) pathway in THP-1 dual cells. Put plainly: THP-1 Dual Reporter Assay, IRF pathway (luciferase reporter). To be noted: Homo sapiens, THP1-Dual, 18 h of stimulation, luminescence. It is filed as cell-based. The protocol:
(§1) THP-1 Dual Reporter Assay
(§2) Compounds of the present invention were tested for their activity using THP-1 dual cells (Invivogen, cat no. thpd-nfis) allowing for simultaneous study of NF-κB pathway and the interferon regulatory factor (IRF) pathway. THP-1 dual cells contain luciferase reporter gene under the control of an ISG54 (interferon-stimulated gene) minimal promoter in conjunction with five interferon-stimulated response elements and a secreted embryonic alkaline phosphatase reporter gene under the control an IFN (interferon)-β minimal promoter fused to five copies of the NF-κB consensus transcriptional response element with three copies of the c-Rel binding site. Following 18 h of stimulation with STING agonist, medium was collected and transferred onto fresh cell culture plate. To verify activity of the IRF pathway, luminescence activity was measured with standard laboratory plate reader immediately after addition 10 μl of the medium to 50 μl of luminescence reagent (Invivogen, cat. No. rep-qlc2). To verify activity of NF-κB pathway, 20 μl of the medium was mixed with 80 μl of a detection medium (Invivogen, cat. No. rep-qb2) and incubated for 2 hours at 37° C. in a humidified atmosphere containing 5% CO2. Next, absorbance at 630 nm was recorded using standard laboratory plate reader.
A general note: Reporter assays use an easily measured gene product as a stand-in for the process of interest.

Experiment [2] deals with NF-κB pathway in THP-1 dual cells. The experiment can be described thus: THP-1 Dual Reporter Assay, NF-κB pathway (SEAP reporter). The format is cell-based. To be noted: Homo sapiens, THP1-Dual, 18 h of stimulation, absorbance at 630 nm, read-out: THP1 Dual EC50 (μM) NFkB. The protocol: as §1, §2

human STING, sequence (Q86WV6 whole entry H232R): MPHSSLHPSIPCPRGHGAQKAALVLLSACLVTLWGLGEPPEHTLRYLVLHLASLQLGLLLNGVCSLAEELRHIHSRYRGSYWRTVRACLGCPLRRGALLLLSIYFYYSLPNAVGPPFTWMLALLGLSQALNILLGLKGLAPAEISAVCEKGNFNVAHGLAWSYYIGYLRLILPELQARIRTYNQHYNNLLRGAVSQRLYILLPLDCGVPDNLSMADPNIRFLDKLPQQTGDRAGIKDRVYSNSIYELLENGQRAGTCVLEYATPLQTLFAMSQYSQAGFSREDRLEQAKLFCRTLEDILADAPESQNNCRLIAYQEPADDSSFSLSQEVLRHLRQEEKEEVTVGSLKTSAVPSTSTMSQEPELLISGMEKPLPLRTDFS

The term ΔTm denotes the shift of the melting midpoint relative to a reference. One may read the EC50 as the concentration that produces a half-maximal response. As to `O=c1c(CN(CCCCn2ccnc2)Cc2ccncc2)coc2ccccc12` [Example 1, 3-({[4-(1H-imidazol-1-yl)butyl](pyridin-4-ylmethyl)amino}methyl)-4H-chromen-4-one], the ΔTm at 50 µM on human STING is under 2.5 °C. The EC50 in experiment [1] was 10 to 20 µM; in experiment [2], at least 20 µM.
In the same order, the values of `O=c1c(CN(CCCn2cccc2)Cc2ccncc2)coc2ccccc12` [Example 2, 3-({[(pyridin-4-yl)methyl][3-(1H-pyrrol-1-yl)propyl]amino}methyl)-4H-chromen-4-one] are under 2.5 °C, 10 to 20 µM and at least 20 µM.
In the same order, the values of `O=c1c(CN(CCCn2cccn2)Cc2ccncc2)coc2ccccc12` [Example 3, 3-({[3-(1H-pyrazol-1-yl)propyl](pyridin-4-ylmethyl)amino}methyl)-4H-chromen-4-one] are under 2.5 °C, at least 20 µM and at least 20 µM.
Consider `O=c1c(CN(CCCn2ccnn2)Cc2ccncc2)coc2ccccc12` [Example 4, 3-{[(pyridin-4-ylmethyl)[3-(1H-1,2,3-triazol-1-yl)propyl]amino]methyl}-4H-chromen-4-one], for which, at human STING, the ΔTm at 50 µM was under 2.5 °C. The EC50 in experiment [1] and in experiment [2] was at least 20 µM each time.
For the compound `Cc1ccc2c(=O)c(CN(CCCn3ccnc3)Cc3ccncc3)coc2c1C` [Example 5, 3-({[3-(1H-imidazol-1-yl)propyl](pyridin-4-ylmethyl)amino}methyl)-7,8-dimethyl-4H-chromen-4-one], at human STING, the ΔTm at 50 µM is over 2.5 °C. For the same compound, the EC50 in experiment [1] and in experiment [2] was at most 10 µM each time.
For the compound `O=c1c(CN(CCCc2ccccn2)Cc2ccncc2)coc2ccccc12` [Example 6, 3-({[3-(pyridin-2-yl)propyl][(pyridin-4-yl)methyl]amino}methyl)-4H-chromen-4-one], the ΔTm at 50 µM at human STING was under 2.5 °C. In addition, the EC50 in experiment [1] and in experiment [2] was at least 20 µM in each case.
With `O=c1c(CN(CCCn2ccnc2)Cc2ccncc2)coc2c1ccc1ccccc12` [Example 7, 3-({[3-(1H-imidazol-1-yl)propyl](pyridin-4-ylmethyl)amino}methyl)-4H benzo[h]chromen-4-one], the ΔTm at 50 µM on human STING was over 2.5 °C. The EC50 in experiment [1] and in experiment [2] was at most 10 µM throughout.
Regarding `O=C1CCCN1CCCN(Cc1ccncc1)Cc1coc2ccccc2c1=O` [Example 8, 1-(3-{[(4-oxo-4H-chromen-3-yl)methyl](pyridin-4-ylmethyl)amino}propyl)pyrrolidin-2-one], the ΔTm at 50 µM on human STING was under 2.5 °C. Further, the EC50 in experiment [1] and in experiment [2] was at least 20 µM in each case.
`COc1ccc2c(=O)c(CN(CCCn3ccnc3)Cc3ccncc3)coc2c1` [Example 9, 3-({[3-(1H-imidazol-1-yl)propyl](pyridin-4-ylmethyl)amino}methyl)-7-methoxy-4H-chromen-4-one]: the ΔTm at 50 µM at human STING was over 2.5 °C. The EC50 in experiment [1] and in experiment [2] was at most 10 µM each time.
As for `O=c1c(CN(CCCn2ccnc2)Cc2ccncc2)coc2cc(Br)ccc12` [Example 10, 7-bromo-3-({[3-(1H-imidazol-1-yl)propyl](pyridin-4 ylmethyl)amino}methyl)-4H-chromen-4-one], at human STING, the ΔTm at 50 µM is over 2.5 °C. The EC50 in experiment [1] is at most 10 µM; in experiment [2] it was 10 to 20 µM.
For `O=c1c(CN(CCCn2ccnc2)Cc2ccncc2)coc2cc(F)ccc12` [Example 11, 7-fluoro-3-({[3-(1H-imidazol-1-yl)propyl](pyridin-4-ylmethyl)amino}methyl)-4H-chromen-4-one], in that order: under 2.5 °C, 10 to 20 µM and at least 20 µM.
For `CN1CCN(c2ccc3c(=O)c(CN(CCCn4ccnc4)Cc4ccncc4)coc3c2)CC1` [Example 12, 3-({[3-(1H-imidazol-1-yl)propyl](pyridin-4-ylmethyl)amino}methyl)-7-(4-methylpiper-azin-1-yl)-4H-chromen-4-one], at human STING, the ΔTm at 50 µM is over 2.5 °C. The EC50 in experiment [1] is at most 10 µM; in experiment [2] it was 10 to 20 µM.
For `O=c1c(CN(CCCn2ccnc2)Cc2ccncc2)coc2cc(OCc3ccccc3)ccc12` [Example 13, 7-(benzyloxy)-3-({[3-(1H-imidazol-1-yl)propyl](pyridin-4-ylmethyl)amino}methyl)-4H-chromen-4-one], in that order: over 2.5 °C, at most 10 µM and at most 10 µM.
In the same order, the values of `Cc1ccc2c(=O)c(CN(CCCn3ccnn3)Cc3ccncc3)coc2c1C` [Example 14, 7,8-dimethyl-3-{[(pyridin-4-ylmethyl)[3-(1H-1,2,3-triazol-1-yl)propyl]amino]methyl}-4H-chromen-4-one] are over 2.5 °C, 10 to 20 µM and 10 to 20 µM.
For `Cc1ccc2c(=O)c(CN(CCCn3cccc3)Cc3ccncc3)coc2c1C` [Example 15, 7,8-dimethyl-3-{[(pyridin-4-ylmethyl)[3-(1H-pyrrol-1-yl)propyl]amino]methyl}-4H-chromen-4-one], in that order: under 2.5 °C, at least 20 µM and at least 20 µM.
`O=c1c(CN(CCCn2ccnc2)Cc2ccncc2)coc2cc(O)ccc12` [Example 16, 7-hydroxy-3-({[3-(1H-imidazol-1-yl)propyl](pyridin-4-ylmethyl)amino}methyl)-4H-chromen-4-one]: the ΔTm at 50 µM at human STING is over 2.5 °C. In addition, the EC50 in experiment [1] was 10 to 20 µM; in experiment [2] it was at least 20 µM.
In the same order, the values of `O=c1c(CN(CCCn2cnc3ccccc32)Cc2ccncc2)coc2ccccc12` [Example 17, 3-({[3-(1H-1,3-benzodiazol-1-yl)propyl](pyridin-4-ylmethyl)amino}methyl)-4H-chromen-4-one] are over 2.5 °C, at most 10 µM and 10 to 20 µM.
For `COc1cc(CN(CCCn2ccnc2)Cc2coc3ccccc3c2=O)ccn1` [Example 18, 3-({[3-(1H-imidazol-1-yl)propyl][(2-methoxypyridin-4-yl)methyl]amino}methyl)-4H-chromen-4-one], in that order: under 2.5 °C, at least 20 µM and at least 20 µM.
For `O=c1c(CN(CCCc2cccnc2)Cc2ccncc2)coc2ccccc12` [Example 19, 3-({[3-(pyridin-3-yl)propyl][(pyridin-4-yl)methyl]amino}methyl)-4H-chromen-4-one], in that order: over 2.5 °C, at most 10 µM and 10 to 20 µM.
On to `O=c1c(CN(CCCn2ccnc2)Cc2ccncc2)coc2c3c(ccc12)CCCC3` [Example 20, 3-({[3-(1H-imidazol-1-yl)propyl](pyridin-4-ylmethyl)amino}methyl)-4H,7H,8H,9H,10-cyclohexa[h]chromen-4-one], for which the ΔTm at 50 µM on human STING was under 2.5 °C. Further, the EC50 in experiment [1] and in experiment [2] was at most 10 µM each time.
For `N#Cc1ccc2c(=O)c(CN(CCCn3ccnc3)Cc3ccncc3)coc2c1` [Example 24, 3-({[3-(1H-imidazol-1-yl)propyl][(pyridin-4-yl)methyl]amino}methyl)-4-oxo-4H-chromene-7-carbonitrile], the EC50 in experiment [1] and in experiment [2] was at least 20 µM throughout.
Turning to `O=c1c(CN(CCCn2ccnc2)Cc2ccncc2)cnc2ccccn12` [Example 35, 3-({[3-(1H-imidazol-1-yl)propyl][(pyridin-4-yl)methyl]amino}methyl)-4H-pyrido[1,2-a]pyrimidin-4-one], the EC50 in experiment [1] and in experiment [2] was at least 20 µM in each case.
Regarding `COc1cc(CN(CCCn2cnc3ccccc32)Cc2cnc3ccccn3c2=O)ccn1` [Example 86, 3-({[3-(1H-1,3-benzodiazol-1-yl)propyl][(2-methoxypyridin-4-yl)methyl]amino}methyl)-4H-pyrido[1,2-a]pyrimidin-4-one], the EC50 in experiment [1] and in experiment [2] was at least 20 µM each time.
As to `COc1cc(CN(CCCn2cnc3ccccc32)Cc2c(C)oc3c(ccc4ccccc43)c2=O)ccn1` [Example 87, 3-({[3-(1H-1,3-benzodiazol-1-yl)propyl][(2-methoxypyridin-4-yl)methyl]amino}methyl)-2-methyl-4H-benzo[h]chromen-4-one], the EC50 in experiment [1] and in experiment [2] was at least 20 µM in each case.
On to `COc1cc(CN(CCCc2cncc3[nH]ncc23)Cc2c(C)oc3cc(Br)c(F)cc3c2=O)ccn1` [Example 92, 7-bromo-6-fluoro-3-({[(2-methoxypyridin-4-yl)methyl](3-{1H-pyrazolo[3,4-c]pyridin-4-yl}propyl)amino}methyl)-2-methyl-4H-chromen-4-one], for which the EC50 in experiment [1] and in experiment [2] was at least 20 µM throughout.
